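Cultured in 96-well plates, cells were exposed to test compound for 48 hours across five concentrations. At the GI50, growth is halved.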 Calls of active or inactive are those of the source. Rule as the data show it: active = GI50 up to about 1.1 µM and inactive = higher.
Key:
Assay in all cases: NCI anticancer screen, dose series, 48 h
A498 = tested on: A498
PC-3 = tested on: PC-3
SR = tested on: SR
M14 = tested on: M14
A549 = tested on: A549
SF-295 = tested on: SF-295
HCT-116 = tested on: HCT-116
DU-145 = tested on: DU-145
SK-MEL-5 = tested on: SK-MEL-5
MCF7 = tested on: MCF7
SK-MEL-28 = tested on: SK-MEL-28
OVCAR-3 = tested on: OVCAR-3
HT-29 = tested on: HT-29
UACC-257 = tested on: UACC-257
UO-31 = tested on: UO-31
HOP-92 = tested on: HOP-92
HOP-62 = tested on: HOP-62
KM12 = tested on: KM12
SF-268 = tested on: SF-268
SN12C = tested on: SN12C
NCI/ADR-RES = tested on: NCI/ADR-RES
HCT-15 = tested on: HCT-15
SK-MEL-2 = tested on: SK-MEL-2
UACC-62 = tested on: UACC-62
NCI-H23 = tested on: NCI-H23
NCI-H522 = tested on: NCI-H522
786-0 = tested on: 786-0
SF-539 = tested on: SF-539
HCC 2998 = tested on: HCC 2998
BT-549 = tested on: BT-549
NCI-H460 = tested on: NCI-H460
OVCAR-5 = tested on: OVCAR-5
MOLT-4 = tested on: MOLT-4
HL-60 = tested on: HL-60
MDA-MB-435 = tested on: MDA-MB-435
SNB-75 = tested on: SNB-75
Hs-578T = tested on: Hs-578T
T47D = tested on: T47D
ACHN = tested on: ACHN
IGROV-1 = tested on: IGROV-1
SW-620 = tested on: SW-620
OVCAR-8 = tested on: OVCAR-8
OVCAR-4 = tested on: OVCAR-4
K562 = tested on: K562
U-251 = tested on: U-251
TK-10 = tested on: TK-10
SNB-19 = tested on: SNB-19
RXF 393 = tested on: RXF 393
MDA-N = tested on: MDA-N
EKVX = tested on: EKVX
LOX IMVI = tested on: LOX IMVI
COLO 205 = tested on: COLO 205
CAKI-1 = tested on: CAKI-1
MDA-MB-231 = tested on: MDA-MB-231
CCRF-CEM = tested on: CCRF-CEM
NCI-H226 = tested on: NCI-H226
RPMI-8226 = tested on: RPMI-8226
Malme-3M = tested on: Malme-3M
SK-OV-3 = tested on: SK-OV-3

SMILES: CC(Nc1cc(=O)n(C)c(=O)[nH]1)c1ccccc1 (stereo unspecified)
- GI50 (A498): > 100 µM (inactive)
- GI50 (PC-3): > 100 µM (inactive)
- GI50 (SR): > 100 µM (inactive)
- GI50 (M14): > 100 µM (inactive)
- GI50 (A549): > 100 µM (inactive)
- GI50 (SF-295): > 100 µM (inactive)
- GI50 (HCT-116): > 100 µM (inactive)
- GI50 (DU-145): > 100 µM (inactive)
- GI50 (SK-MEL-5): > 100 µM (inactive)
- GI50 (MCF7): > 100 µM (inactive)
- GI50 (SK-MEL-28): > 100 µM (inactive)
- GI50 (OVCAR-3): > 100 µM (inactive)
- GI50 (HT-29): > 100 µM (inactive)
- GI50 (UACC-257): > 100 µM (inactive)
- GI50 (UO-31): > 100 µM (inactive)
- GI50 (HOP-92): 15.5 µM (inactive)
- GI50 (HOP-62): > 100 µM (inactive)
- GI50 (KM12): > 100 µM (inactive)
- GI50 (SF-268): > 100 µM (inactive)
- GI50 (SN12C): > 100 µM (inactive)
- GI50 (NCI/ADR-RES): > 100 µM (inactive)
- GI50 (HCT-15): > 100 µM
- GI50 (SK-MEL-2): > 100 µM (inactive)
- GI50 (UACC-62): > 100 µM (inactive)
- GI50 (NCI-H23): > 100 µM (inactive)
- GI50 (NCI-H522): > 100 µM (inactive)
- GI50 (786-0): > 100 µM (inactive)
- GI50 (SF-539): > 100 µM (inactive)
- GI50 (HCC 2998): > 100 µM (inactive)
- GI50 (BT-549): > 100 µM (inactive)
- GI50 (NCI-H460): > 100 µM (inactive)
- GI50 (OVCAR-5): > 100 µM (inactive)
- GI50 (MOLT-4): > 100 µM (inactive)
- GI50 (HL-60): > 100 µM (inactive)
- GI50 (MDA-MB-435): > 100 µM (inactive)
- GI50 (SNB-75): > 100 µM (inactive)
- GI50 (Hs-578T): > 100 µM (inactive)
- GI50 (T47D): > 100 µM (inactive)
- GI50 (ACHN): > 100 µM (inactive)
- GI50 (IGROV-1): > 100 µM (inactive)
- GI50 (SW-620): > 100 µM (inactive)
- GI50 (OVCAR-8): > 100 µM (inactive)
- GI50 (OVCAR-4): > 100 µM (inactive)
- GI50 (K562): > 100 µM (inactive)
- GI50 (U-251): > 100 µM (inactive)
- GI50 (TK-10): > 100 µM (inactive)
- GI50 (SNB-19): > 100 µM (inactive)
- GI50 (RXF 393): > 100 µM (inactive)
- GI50 (MDA-N): > 100 µM (inactive)
- GI50 (EKVX): > 100 µM (inactive)
- GI50 (LOX IMVI): > 100 µM (inactive)
- GI50 (COLO 205): > 100 µM (inactive)
- GI50 (CAKI-1): > 100 µM (inactive)
- GI50 (MDA-MB-231): > 100 µM (inactive)
- GI50 (CCRF-CEM): > 100 µM (inactive)

SMILES: CCOC(=O)c1c(N2CCCC2)[nH]c(=O)c(C(c2ccc(OC)cc2)c2c(O)c(C(=O)OCC)c(N3CCCC3)[nH]c2=O)c1O
- GI50 (A498): > 100 µM (inactive)
- GI50 (PC-3): > 100 µM (inactive)
- GI50 (SR): 88.9 µM (inactive)
- GI50 (M14): > 100 µM (inactive)
- GI50 (A549): > 100 µM (inactive)
- GI50 (SF-295): 25.7 µM (inactive)
- GI50 (HCT-116): > 100 µM (inactive)
- GI50 (DU-145): > 100 µM (inactive)
- GI50 (SK-MEL-5): > 100 µM (inactive)
- GI50 (MCF7): > 100 µM (inactive)
- GI50 (NCI-H226): > 100 µM (inactive)
- GI50 (SK-MEL-28): > 100 µM (inactive)
- GI50 (OVCAR-3): > 100 µM (inactive)
- GI50 (UACC-257): > 100 µM (inactive)
- GI50 (UO-31): > 100 µM (inactive)
- GI50 (HOP-92): 12.3 µM (inactive)
- GI50 (HOP-62): 46.6 µM (inactive)
- GI50 (KM12): > 100 µM (inactive)
- GI50 (SF-268): 49.5 µM (inactive)
- GI50 (SN12C): > 100 µM (inactive)
- GI50 (NCI/ADR-RES): > 100 µM (inactive)
- GI50 (HCT-15): > 100 µM
- GI50 (SK-MEL-2): 5 µM (inactive)
- GI50 (UACC-62): > 100 µM (inactive)
- GI50 (NCI-H23): 82 µM (inactive)
- GI50 (NCI-H522): > 100 µM (inactive)
- GI50 (786-0): > 100 µM (inactive)
- GI50 (SF-539): > 100 µM (inactive)
- GI50 (HCC 2998): > 100 µM (inactive)
- GI50 (BT-549): 76 µM (inactive)
- GI50 (NCI-H460): > 100 µM (inactive)
- GI50 (OVCAR-5): 52.7 µM (inactive)
- GI50 (MOLT-4): > 100 µM (inactive)
- GI50 (MDA-MB-435): > 100 µM (inactive)
- GI50 (SNB-75): 21.3 µM (inactive)
- GI50 (Hs-578T): > 100 µM (inactive)
- GI50 (T47D): > 100 µM (inactive)
- GI50 (ACHN): 56 µM (inactive)
- GI50 (RPMI-8226): > 100 µM (inactive)
- GI50 (SW-620): > 100 µM (inactive)
- GI50 (OVCAR-8): 86.1 µM (inactive)
- GI50 (OVCAR-4): > 100 µM (inactive)
- GI50 (K562): > 100 µM (inactive)
- GI50 (Malme-3M): > 100 µM (inactive)
- GI50 (U-251): 48.9 µM (inactive)
- GI50 (TK-10): 42.8 µM (inactive)
- GI50 (SK-OV-3): > 100 µM (inactive)
- GI50 (SNB-19): > 100 µM (inactive)
- GI50 (RXF 393): 57.3 µM (inactive)
- GI50 (MDA-N): > 100 µM (inactive)
- GI50 (EKVX): 44.8 µM (inactive)
- GI50 (LOX IMVI): > 100 µM (inactive)
- GI50 (COLO 205): > 100 µM (inactive)
- GI50 (CAKI-1): 28.4 µM (inactive)
- GI50 (MDA-MB-231): 20.8 µM (inactive)
- GI50 (CCRF-CEM): > 100 µM (inactive)

Source: ChEMBL document CHEMBL1201862, “PubChem BioAssay data set” (2004)
